Tests used:
K562 [1] = assay: In vitro inhibitory activity against K562 human leukemia cell line; format: functional, cell-based
K562 [2] = assay: Effect on cell cycle distribution of K562 cells following treatment of 10 x IC50 for 16 hours and percentage of cells in S phase was reported.; format: functional, Homo sapiens
K562 [3] = assay: Effect on cell cycle distribution of K562 cells following treatment of 10 x IC50 for 16 hours and percentage of cells in G2/M phase was reported.; format: functional, Homo sapiens
K562 [4] = assay: Effect on cell cycle distribution of K562 cells following treatment of 10 x IC50 for 16 hours and percentage of apoptotic cells (cells with DNA content less than cells in G1 phase) was reported.; format: functional, Homo sapiens
K562 [5] = assay: Effect on cell cycle distribution of K562 cells following treatment of 10 x IC50 for 16 hours and c.v. value was reported.; format: functional, Homo sapiens
K562 [6] = assay: Evaluated for the effect on cell cycle distribution of K562 cells following treatment of 10 x IC50 for 16 hours and percentage of cells in G1 phase was reported.; format: functional, Homo sapiens
NCI-H460 = assay: Inhibitory activity against H460 lung cancer cell line; format: functional; conditions: Homo sapiens, read-out: ID50 (the source's name)
[7] = Inhibitory activity against FF1 normal skin cells; format: functional; conditions: Homo sapiens, read-out: ID50 (the source's name)
NCI-H520 = assay: Inhibitory activity against H520 lung cancer cell line; format: functional; conditions: Homo sapiens, read-out: ID50 (the source's name)
MCF7 = assay: Inhibitory activity against MCF-7 breast cancer cell line; format: functional; conditions: Homo sapiens, read-out: ID50 (the source's name)
P388 = assay: Inhibitory activity against P388 mouse leukemia cell line; format: functional; conditions: read-out: ID50 (the source's name)
WiDr = assay: Inhibitory activity against WiDR colon adenocarcinoma cell line; format: functional; conditions: Homo sapiens, read-out: ID50 (the source's name)
K562 [8] = assay: Inhibitory activity against K562 human leukemia cell line; format: functional; conditions: read-out: ID50 (the source's name)
COLO = assay: Inhibitory activity against COLO skin melanoma cell line; format: functional; conditions: Homo sapiens, read-out: ID50 (the source's name)
BT-20 = assay: Inhibitory activity against BT20 breast cancer cell line; format: functional; conditions: Homo sapiens, read-out: ID50 (the source's name)
A549 = assay: Inhibitory activity against A549 lung cancer cell line; format: functional; conditions: Homo sapiens, read-out: ID50 (the source's name)

## C=C1CCC[C@]2(C)C[C@H]3OC(=O)[C@@H](CN(C)C(C)C(O)c4ccccc4)[C@H]3C[C@@H]12 (stereo partly specified)
K562 [1]
  IC50: 3 µM

## C=C1CCC[C@]2(C)C[C@H]3OC(=O)[C@@H](CN(C)CCO)[C@H]3C[C@@H]12
K562 [1]
  IC50: 4 µM

## C=C1CCC[C@]2(C)C[C@H]3OC(=O)[C@@H](CN(C)C)[C@H]3C[C@@H]12
K562 [1]
  IC50: 3 µM

## CCN(CC)C[C@@H]1C(=O)O[C@@H]2C[C@@]3(C)CCC[C@H](C)C3=C[C@H]12
K562 [2]
  S: 52%
K562 [1]
  IC50: 0.7 µM
K562 [3]
  G2/M: 10%
K562 [4]
  Activity: 7.3%
K562 [5]
  c.v: 7
K562 [6]
  G1: 38%

## C=C1CCC[C@]2(C)C[C@H]3OC(=O)[C@@H](CNCCCN(C)C)[C@H]3C[C@@H]12
K562 [1]
  IC50: 6 µM

## C=C1CCC[C@]2(C)C[C@H]3OC(=O)[C@@H](CN4CCCCC4)[C@H]3C[C@@H]12
K562 [1]
  IC50: 5 µM

## C=C1CCC[C@]2(C)C[C@H]3OC(=O)[C@@H](CN(CC)CC)[C@H]3C[C@@H]12
NCI-H460
  IC50: 0.6 µM
K562 [2]
  S: 52%
K562 [1]
  IC50: 2 µM
[7]
  IC50: 1 µM
NCI-H520
  IC50: 0.9 µM
MCF7
  IC50: 0.8 µM
K562 [3]
  G2/M: 10%
P388
  IC50: 0.3 µM
K562 [4]
  Activity: 4.4%
WiDr
  IC50: 1.5 µM
K562 [8]
  IC50: 2 µM
COLO
  IC50: 3.5 µM
BT-20
  IC50: 1.2 µM
A549
  IC50: 0.8 µM
K562 [5]
  c.v: 4.3
K562 [6]
  G1: 39%

## C=C1CCC[C@]2(C)C[C@H]3OC(=O)[C@@H](CN4CCCC4)[C@H]3C[C@@H]12
K562 [1]
  IC50: 5 µM

## C[C@H]1CCC[C@]2(C)C[C@H]3OC(=O)[C@@H](CN(C)C)[C@H]3C=C12
K562 [1]
  IC50: 2 µM

## C=C1CCC[C@]2(C)C[C@H]3OC(=O)[C@@H](CNCc4ccccc4)[C@H]3C[C@@H]12
K562 [1]
  IC50: 15 µM

## C=C1CCC[C@]2(C)C[C@H]3OC(=O)[C@@H](CN4CCOCC4)[C@H]3C[C@@H]12
K562 [1]
  IC50: 5 µM

## C[C@H]1CCC[C@]2(C)C[C@H]3OC(=O)[C@@H](CN4CCCCC4)[C@H]3C=C12
K562 [1]
  IC50: 2 µM

## C=C1CCC[C@]2(C)C[C@H]3OC(=O)[C@@H](CN(CCC)CCC)[C@H]3C[C@@H]12
K562 [1]
  IC50: 5 µM

## C=C1C(=O)O[C@@H]2C[C@@]3(C)CCCC(=C)[C@@H]3C[C@H]12 [ISOALANTOLACTONE]
NCI-H460
  IC50: 0.6 µM
K562 [2]
  S: 50%
K562 [1]
  IC50: 1.2 µM
[7]
  IC50: 1.1 µM
NCI-H520
  IC50: 0.9 µM
MCF7
  IC50: 0.6 µM
K562 [3]
  G2/M: 12%
P388
  IC50: 0.4 µM
K562 [4]
  Activity: 8.2%
WiDr
  IC50: 1.4 µM
K562 [8]
  IC50: 1.2 µM
COLO
  IC50: 2.1 µM
BT-20
  IC50: 1.2 µM
A549
  IC50: 0.6 µM
K562 [5]
  c.v: 3.2
K562 [6]
  growth inhibition (GI): 38%

## C=C1CCC[C@]2(C)C[C@H]3OC(=O)[C@@H](CNC)[C@H]3C[C@@H]12
K562 [1]
  IC50: 24 µM

## C=C1C(=O)O[C@@H]2C[C@@]3(C)CCC[C@H](C)C3=C[C@H]12 [HELENINE]
K562 [2]
  S: 53%
K562 [1]
  IC50: 0.7 µM
K562 [3]
  G2/M: 17%
K562 [4]
  Activity: 9.9%
K562 [5]
  c.v: 3.4
K562 [6]
  growth inhibition (GI): 30%

— ChEMBL document CHEMBL1134178, “Cytotoxic Michael-type amine adducts of alpha-methylene lactones alantolactone and isoalantolactone” (Bioorg Med Chem Lett, 2001)
